pIC50: −log10 of the molar value.

The target of this assay is T1, Murine PKD1 kinase domain (Mus musculus, UniProt Q62101).
T1 construct: hexahistidine (pFastBac HTb leader) (N); made in house; host or cells: Sf9 insect cells, baculovirus (Bac-to-Bac HT, pFastBac HTb)
T1 sequence (Q62101 with tags, fused parts or gaps R683W): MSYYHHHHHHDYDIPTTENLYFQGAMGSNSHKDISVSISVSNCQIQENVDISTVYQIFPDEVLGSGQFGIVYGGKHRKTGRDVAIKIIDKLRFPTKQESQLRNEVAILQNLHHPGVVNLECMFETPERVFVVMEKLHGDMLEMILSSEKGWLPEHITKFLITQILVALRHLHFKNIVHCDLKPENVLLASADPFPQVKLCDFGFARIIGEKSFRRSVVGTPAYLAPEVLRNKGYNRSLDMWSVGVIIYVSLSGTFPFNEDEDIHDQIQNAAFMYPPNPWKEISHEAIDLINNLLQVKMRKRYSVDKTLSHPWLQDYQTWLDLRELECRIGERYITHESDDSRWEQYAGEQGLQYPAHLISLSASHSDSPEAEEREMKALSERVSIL
Briefly: PKD1 (Murine Kinase Domain) Enzyme Activity Assay (IMAP fluorescence polarisation). It is filed as biochemical. Particulars: 10 μM ATP, 60 minutes, room temperature.
On to `COc1cc(-c2cncc(-c3cccc(C(=O)NC4CCN(C)CC4)c3)n2)ccc1O` [X-019, 3-[6-(4-Hydroxy-3-methoxy-phenyl)-pyrazin-2-yl]-N-(1-methyl-piperidin-4-yl)-benzamide], for which the pIC50 is above 6.00.

In turn, `Cc1ccc(-c2cc(-c3cccc(C(=O)NCCN(C)C)c3)cnc2N)cc1F` [Y-044, 3-[6-Amino-5-(3-fluoro-4-methyl-phenyl)-pyridin-3-yl]-N-(2-dimethylamino-ethyl)-benzamide] had a pIC50 above 6.00.

In the case of `CN(C)CCNC(=O)c1cccc(-c2cnc(N)c(-c3ccc4ccccc4c3)c2)c1` [Y-020, 3-(6-Amino-5-naphthalen-2-yl-pyridin-3-yl)-N-(2-dimethylamino-ethyl)-benzamide], the pIC50 was above 6.00.

In turn, `COc1ccc2cc(-c3cc(-c4cccc(C(=O)NCCN(C)C)c4)cnc3N)ccc2c1` [Y-087, 3-[6-Amino-5-(6-methoxy-naphthalen-2-yl)-pyridin-3-yl]-N-(2-dimethylamino-ethyl)-benzamide] gave a pIC50 above 6.00.

In turn, `COc1ccc(-c2cc(-c3cccc(C(N)=O)c3)cnc2N)cc1OC` [Y-034, 3-[6-Amino-5-(3,4-dimethoxy-phenyl)-pyridin-3-yl]-benzamide] had a pIC50 of 5.00 to 6.00.

`CCN(CC)CCNC(=O)c1cccc(-c2cncc(-c3ccc(O)c(OC)c3)n2)c1` [X-022, N-(2-Diethylamino-ethyl)-3-[6-(4-hydroxy-3-methoxy-phenyl)-pyrazin-2-yl]-benzamide]: the pIC50 was above 6.00.

Regarding `CN(C)CCNC(=O)c1cccc(-c2cnc(N)c(-c3cccc(OC(F)(F)F)c3)c2)c1` [Y-050, 3-[6-Amino-5-(3-trifluoromethoxy-phenyl)-pyridin-3-yl]-N-(2-dimethylamino-ethyl)-benzamide], the pIC50 is above 6.00.

Turning to `CN(C)CCNC(=O)c1cccc(-c2cnc(N)c(-c3ccc(-c4ccccc4)cc3)c2)c1` [Y-014, 3-(6-Amino-5-biphenyl-4-yl-pyridin-3-yl)-N-(2-dimethylamino-ethyl)-benzamide], the pIC50 is above 6.00.

As to `CN(C)CCNC(=O)c1cccc(-c2cnc(N)c(-c3cnc4ccccc4c3)c2)c1` [Y-090, 3-(6-Amino-5-quinolin-3-yl-pyridin-3-yl)-N-(2-dimethylamino-ethyl)-benzamide], the pIC50 is above 6.00.

`CC(=O)Nc1cccc(-c2cncc(-c3cccc(C(=O)NCCCN(C)C)c3)n2)c1` [X-006, 3-[6-(3-Acetylamino-phenyl)-pyrazin-2-yl]-N-(3-dimethylamino-propyl)-benzamide]: the pIC50 is above 6.00.

`NC(=O)c1cccc(-c2cnc(N)c(-c3cccc4ncccc34)c2)c1` [Y-021, 3-(6-Amino-5-quinolin-5-yl-pyridin-3-yl)-benzamide] had a pIC50 of 5.00 to 6.00.

In the case of `COc1cccc(-c2cc(-c3cccc(C(=O)NC(C)CN(C)C)c3)cnc2N)c1` (stereo not shown) [Y-092, 3-[6-Amino-5-(3-methoxy-phenyl)-pyridin-3-yl]-N-(2-dimethylamino-1-methyl-ethyl)-benzamide], the pIC50 was above 6.00.

In turn, `COc1cccc(-c2nc(-c3cccc(C(=O)NCCN(C)C)c3)cnc2N)c1` [X-026, 3-[5-Amino-6-(3-methoxy-phenyl)-pyrazin-2-yl]-N-(2-dimethylamino-ethyl)-benzamide] had a pIC50 above 6.00.

`CN(C)CCNC(=O)c1cccc(-c2cnc(N)c(-c3ccnc(O)c3)c2)c1` [Y-071, 3-(2-Amino-2′-hydroxy-[3,4′]bipyridinyl-5-yl)-N-(2-dimethylamino-ethyl)-benzamide]: the pIC50 is above 6.00.

`COc1cccc(-c2cc(-c3cccc(C(=O)NCCN(C)C)c3)cnc2N)c1` [Y-048, 3-[6-Amino-5-(3-methoxy-phenyl)-pyridin-3-yl]-N-(2-dimethylamino-ethyl)-benzamide] showed a pIC50 above 6.00.

For `CN(C)CCNC(=O)c1cccc(-c2cnc(N)c(-c3ccc(Cl)nc3)c2)c1` [Y-006, 3-(2-Amino-6′-chloro-[3,3′]bipyridinyl-5-yl)-N-(2-dimethylamino-ethyl)-benzamide], the pIC50 is 5.00 to 6.00.

The compound `CN(C)CCNC(=O)c1cccc(-c2cnc(N)c(-c3cccc(C#N)c3)c2)c1` [Y-041, 3-[6-Amino-5-(3-cyano-phenyl)-pyridin-3-yl]-N-(2-dimethylamino-ethyl)-benzamide] showed a pIC50 above 6.00.

As to `CN(C)CCNC(=O)c1cccc(-c2cnc(N)c(-c3ccc4[nH]ncc4c3)c2)c1` [Y-094, 3-[6-Amino-5-(1H-indazol-5-yl)-pyridin-3-yl]-N-(2-dimethylamino-ethyl)-benzamide], the pIC50 is above 6.00.

`CN(C)CCNC(=O)c1cccc(-c2cnc(N)c(-c3ccc(C(F)(F)F)cc3)c2)c1` [Y-069, 3-[6-Amino-5-(4-trifluoromethyl-phenyl)-pyridin-3-yl]-N-(2-dimethylamino-ethyl)-benzamide] showed a pIC50 above 6.00.

Regarding `CN(C)CCNC(=O)c1cccc(-c2cnc(N)c(-c3cccc(O)c3)c2)c1` [Y-077, 3-[6-Amino-5-(3-hydroxy-phenyl)-pyridin-3-yl]-N-(2-dimethylamino-ethyl)-benzamide], the pIC50 was above 6.00.

Compound `COc1ccc2cc(-c3nc(-c4cccc(C(=O)NCCN(C)C)c4)cnc3N)ccc2c1` [X-025, 3-[5-Amino-6-(6-methoxy-naphthalen-2-yl)-pyrazin-2-yl]-N-(2-dimethylamino-ethyl)-benzamide] had a pIC50 above 6.00.

In turn, `CN(C)CCNC(=O)c1cccc(-c2cnc(N)c(-c3ccc(OC(F)(F)F)cc3)c2)c1` [Y-064, 3-[6-Amino-5-(4-trifluoromethoxy-phenyl)-pyridin-3-yl]-N-(2-dimethylamino-ethyl)-benzamide] had a pIC50 above 6.00.

Take `COc1cc(-c2cc(-c3cccc(C(=O)N4CCN(C)CC4)c3)cnc2N)ccc1O` [Y-004, {3-[6-Amino-5-(4-hydroxy-3-methoxy-phenyl)-pyridin-3-yl]-phenyl}-(4-methyl-piperazin-1-yl)-methanone]: the pIC50 was 5.00 to 6.00.

With `CN(C)CCNC(=O)c1cccc(-c2cnc(N)c(-c3cccc(S(C)(=O)=O)c3)c2)c1` [Y-072, 3-[6-Amino-5-(3-methanesulfonyl-phenyl)-pyridin-3-yl]-N-(2-dimethylamino-ethyl)-benzamide], the pIC50 was 5.00 to 6.00.

In turn, `CC(C)Cc1ccc(-c2cc(-c3cccc(C(=O)NCCN(C)C)c3)cnc2N)cc1` [Y-062, 3-[6-Amino-5-(4-isobutyl-phenyl)-pyridin-3-yl]-N-(2-dimethylamino-ethyl)-benzamide] showed a pIC50 above 6.00.

For `CN(C)CCNC(=O)c1cccc(-c2cnc(N)c(-c3ccc(F)c(Cl)c3)c2)c1` [Y-039, 3-[6-Amino-5-(3-chloro-4-fluoro-phenyl)-pyridin-3-yl]-N-(2-dimethylamino-ethyl)-benzamide], the pIC50 was above 6.00.

The compound `CN(C)CCNC(=O)c1cccc(-c2cncc(-c3cccc4c3oc3ccccc34)n2)c1` [X-013, 3-(6-Dibenzofuran-4-yl-pyrazin-2-yl)-N-(2-dimethylamino-ethyl)-benzamide] had a pIC50 above 6.00.

For `CCN(CC)CCNC(=O)c1cccc(-c2cnc(N)c(-c3cccc(OC)c3)n2)c1` [X-027, 3-[5-Amino-6-(3-methoxy-phenyl)-pyrazin-2-yl]-N-(2-diethylamino-ethyl)-benzamide], the pIC50 is above 6.00.

As for `COc1ccccc1-c1nc(-c2cccc(C(=O)NCCN(C)C)c2)cnc1N` [X-015, 3-[5-Amino-6-(2-methoxy-phenyl)-pyrazin-2-yl]-N-(2-dimethylamino-ethyl)-benzamide], the pIC50 is 5.00 to 6.00.

Turning to `CN(C)CCNC(=O)c1cccc(-c2cnc(N)c(-c3ccc(Cl)c(F)c3)c2)c1` [Y-052, 3-[6-Amino-5-(4-chloro-3-fluoro-phenyl)-pyridin-3-yl]-N-(2-dimethylamino-ethyl)-benzamide], the pIC50 was above 6.00.

Regarding `CN(C)CCNC(=O)c1cccc(-c2cnc(N)c(-c3cc4ccccc4s3)c2)c1` [Y-011, 3-(6-Amino-5-benzo[b]thiophen-2-yl-pyridin-3-yl)-N-(2-dimethylamino-ethyl)-benzamide], the pIC50 was above 6.00.

For `CN(C)CCNC(=O)c1cccc(-c2cnc(N)c(-c3ccc(O)c(F)c3)c2)c1` [Y-042, 3-[6-Amino-5-(3-fluoro-4-hydroxy-phenyl)-pyridin-3-yl]-N-(2-dimethylamino-ethyl)-benzamide], the pIC50 was above 6.00.

`CCOc1cccc(-c2cc(-c3cccc(C(=O)NCCN(C)C)c3)cnc2N)c1` [Y-073, 3-[6-Amino-5-(3-ethoxy-phenyl)-pyridin-3-yl]-N-(2-dimethylamino-ethyl)-benzamide] had a pIC50 of 5.00 to 6.00.

`Cc1ccc(-c2cc(-c3cccc(C(=O)NCCN(C)C)c3)cnc2N)cc1C` [Y-036, 3-[6-Amino-5-(3,4-dimethyl-phenyl)-pyridin-3-yl]-N-(2-dimethylamino-ethyl)-benzamide] had a pIC50 above 6.00.

On to `CN(C)CCNC(=O)c1cccc(-c2cnc(N)c(-c3ccc4c(c3)OCO4)c2)c1` [Y-010, 3-(6-Amino-5-benzo[1,3]dioxol-5-yl-pyridin-3-yl)-N-(2-dimethylamino-ethyl)-benzamide], for which the pIC50 was above 6.00.

`CN(C)CCNC(=O)c1cccc(-c2cnc(N)c(-c3ccncc3)c2)c1` [Y-084, 3-(2-Amino-[3,4′]bipyridinyl-5-yl)-N-(2-dimethylamino-ethyl)-benzamide] gave a pIC50 above 6.00.

On to `CN1CCN(C(=O)c2cccc(-c3cnc(N)c(-c4cccc5c4oc4ccccc45)n3)c2)CC1` [X-008, [3-(5-Amino-6-dibenzofuran-4-yl-pyrazin-2-yl)-phenyl]-(4-methyl-piperazin-1-yl)-methanone], for which the pIC50 was above 6.00.

(Values after patent US20110098325A1, “PYRIDINE BENZAMIDES AND PYRAZINE BENZAMIDES USED AS PKD INHIBITORS” (CANCER RESEARCH TECHNOLOGY LIMITED, priority 2006, published 2011).)
